The values that follow come from US20250011288A1 (BRISTOL-MYERS SQUIBB COMPANY, priority 2021, published 2025).

Molecules are shown by their SMILES.

For orientation: EC50 means the concentration giving half of the maximal effect. Lower therefore signals a more potent agent.

This assay deals with T1, human RXFP1 (Homo sapiens, UniProt Q9HBX9).
T1 construct: expressed in transfected cells
T1 sequence (Q9HBX9 1-757): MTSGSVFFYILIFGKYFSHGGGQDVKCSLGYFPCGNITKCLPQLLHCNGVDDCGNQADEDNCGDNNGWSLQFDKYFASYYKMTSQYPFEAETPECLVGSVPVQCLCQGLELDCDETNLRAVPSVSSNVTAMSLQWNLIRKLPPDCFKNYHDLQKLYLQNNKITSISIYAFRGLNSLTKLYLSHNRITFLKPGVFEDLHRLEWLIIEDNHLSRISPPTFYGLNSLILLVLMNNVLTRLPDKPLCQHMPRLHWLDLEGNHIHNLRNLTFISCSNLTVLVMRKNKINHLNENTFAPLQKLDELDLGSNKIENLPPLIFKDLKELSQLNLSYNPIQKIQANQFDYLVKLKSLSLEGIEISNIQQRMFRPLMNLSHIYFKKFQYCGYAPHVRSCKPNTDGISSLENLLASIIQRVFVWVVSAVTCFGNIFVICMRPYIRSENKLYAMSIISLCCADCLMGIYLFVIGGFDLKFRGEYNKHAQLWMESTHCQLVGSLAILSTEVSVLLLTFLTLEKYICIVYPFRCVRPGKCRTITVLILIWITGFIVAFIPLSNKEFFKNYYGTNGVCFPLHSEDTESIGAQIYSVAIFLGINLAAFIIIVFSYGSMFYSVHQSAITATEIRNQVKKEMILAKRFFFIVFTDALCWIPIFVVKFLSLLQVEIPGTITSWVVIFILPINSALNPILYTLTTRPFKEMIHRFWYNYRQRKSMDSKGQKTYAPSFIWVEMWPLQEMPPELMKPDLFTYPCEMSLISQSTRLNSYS
In words: human RXFP1 (hRXFP1) HEK293 cAMP assay (HTRF). Format: cell-based. The note with it: HEK293 cells stably expressing human RXFP1, 30 min at room temperature. The essentials:
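HEK293 cells stably expressing human RXFP1 (1500 cells/well) in HBSS/20 mM HEPES/0.05% BSA/0.5 mM IBMX, treated with compound (0.010 nM–50 µM final, 2% DMSO) for 30 min at room temperature. Intracellular cAMP read by HTRF; potency from 4-parameter logistic fit of cAMP versus concentration.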
With `COc1cc2c(cc1C(=O)N[C@H]1[C@@H](C(=O)Nc3ccc(F)c(C(F)(F)F)c3)[C@H]3CC[C@@H]1/C3=C\C1CC1)CN(S(=O)(=O)CC(C)C)CC2` [Example 88, N-((1R,2R,3S,4R,Z)-7-(cyclopropylmethylene)-3-((4-fluoro-3-(trifluoromethyl)phenyl)carbamoyl)bicyclo[2.2.1]heptan-2-yl)-2-(isobutylsulfonyl)-6-methoxy-1,2,3,4-tetrahydroisoquinoline-7-carboxamide], the EC50 came to 110 nM.
Consider `COc1ncc(CCCO)cc1C(=O)N[C@@H]1C2CCC(/C2=C/C(F)(F)F)[C@@H]1C(=O)Nc1ccc(F)c(C(F)(F)F)c1` (stereo partly drawn) [Example 50, N-[(2R,3S,7Z)-3-{[4-fluoro-3-(trifluoromethyl)phenyl]carbamoyl}-7-(2,2,2-trifluoroethylidene)bicyclo[2.2.1]heptan-2-yl]-5-(3-hydroxypropyl)-2-methoxypyridine-3-carboxamide], for which the midpoint of the response, the EC50, lay at 129 nM.
`COc1cc2c(cc1C(=O)N[C@@H]1C3CCC(/C3=C/C3CC3)[C@@H]1C(=O)Nc1ccc(F)c(C(F)(F)F)c1)CCN(CC(C)(C)O)C2` (stereo partly shown) [Example 95] came in with a concentration for a half-maximal effect (EC50) of 1600 nM.
With `CC1(C)Cc2cc(C3=NOC4CCOCC34)cc(C(=O)N[C@H]3[C@@H](C(=O)Nc4ccc(F)c(C(F)(F)F)c4)[C@H]4CC[C@@H]3/C4=C\C3CC3)c2O1` (stereo partly drawn) [Example 147, 5-{3aH,4H,6H, 7H,7aH-pyrano[3,4-d][1,2]oxazol-3-yl}-N-[(1R,2R,3S,4R,7Z)-7-(cyclopropyl-methylidene)-3-{[4-fluoro-3-(trifluoromethyl)phenyl]carbamoyl}bicyclo[2.2.1]heptan-2-yl]-2,2-dimethyl-2,3-dihydro-1-benzofuran-7-carboxamide], the EC50 turned out to be 3.8 nM.
Consider `COc1ncc(-c2cc(C(=O)O)ccc2F)nc1C(=O)N[C@H]1[C@@H](C(=O)Nc2ccc(F)c(C(F)(F)F)c2)[C@H]2CC[C@@H]1/C2=C\c1cnoc1` [Example 26, 4-fluoro-3-(6-(((1R,2R,3S,4R,Z)-3-((4-fluoro-3-(trifluoromethyl)phenyl)carbamoyl)-7-(isoxazol-4-ylmethylene)bicyclo[2.2.1]heptan-2-yl)carbamoyl)-5-methoxypyrazin-2-yl)benzoic acid], for which the EC50 was found to be 76 nM.
Then `COCCN1CCc2cc(OC)c(C(=O)N[C@H]3[C@@H](C(=O)Nc4ccc(F)c(C(F)(F)F)c4)[C@H]4CC[C@@H]3/C4=C\C3CC3)cc2C1` [Example 87, N-[(1R,2R,3S,4R)-7-(cyclopropyl-methylidene)-3-{[4-fluoro-3-(trifluoromethyl)phenyl]carbamoyl}bicyclo[2.2.1]heptan-2-yl]-6-methoxy-2-(2-methoxyethyl)-1,2,3,4-tetrahydro-isoquinoline-7-carboxamide], with 630 nM.
The same measure for `COc1ncc(C2=NOC3CC(C(C)O)CC23)cc1C(=O)N[C@H]1[C@@H](C(=O)Nc2ccc(F)c(C(F)(F)F)c2)[C@H]2CC[C@@H]1/C2=C\C1CC1` (stereo partly drawn) [Example 112, N-((1R,2R,3S,4R,Z)-7-(cyclopropyl-methylene)-3-((4-fluoro-3-(trifluoromethyl)phenyl)carbamoyl)bicyclo[2.2.1]heptan-2-yl)-5-(5-(1-hydroxyethyl)-3a,5,6,6a-tetrahydro-4H-cyclopenta[d]isoxazol-3-yl)-2-methoxynicotinamide]: 3.9 nM; for `COc1cc2c(cc1C(=O)N[C@@H]1C3CCC(/C3=C/C3CC3)[C@@H]1C(=O)Nc1ccc(F)c(C(F)(F)F)c1)CCN(CCS(C)(=O)=O)C2` (stereo partly shown) [Example 92]: 4800 nM; for `COc1cnc(C2=NOC3COCC23)cc1C(=O)N[C@H]1[C@@H](C(=O)Nc2ccc(F)c(C(F)(F)F)c2)[C@H]2CC[C@@H]1/C2=C\C1CC1` (single isomer, unassigned) [Example 71]: 28 nM.
The same measure for `COc1ncc(C2=NOC3CC(CO)CC23)cc1C(=O)N[C@H]1[C@@H](C(=O)Nc2ccc(F)c(C(F)(F)F)c2)[C@H]2CC[C@@H]1/C2=C\CCC(F)(F)F` (stereo partly drawn) [Example 139, N-((1R,2R,3S,4R,Z)-3-((4-fluoro-3-(trifluoromethyl)phenyl)carbamoyl)-7-(4,4,4-trifluorobutylidene)bicyclo[2.2.1]heptan-2-yl)-5-(5-(hydroxymethyl)-3a,5,6,6a-tetrahydro-4H-cyclopenta[d]isoxazol-3-yl)-2-methoxynicotinamide]: 2.9 nM; for `COc1ncc(-c2cnc3n2CC(O)CC3)cc1C(=O)N[C@H]1[C@@H](C(=O)Nc2ccc(F)c(C(F)(F)F)c2)[C@H]2CC[C@@H]1/C2=C\C1CC1` (stereo partly drawn) [Example 103, N-((1R,2R,3S,4R,Z)-7-(cyclopropyl-methylene)-3-((4-fluoro-3-(trifluoromethyl)phenyl)carbamoyl)bicyclo[2.2.1]heptan-2-yl)-5-(6-hydroxy-5,6,7,8-tetrahydroimidazo [1,2-a]pyridin-3-yl)-2-methoxynicotinamide]: 3.4 nM; for `COc1cnc(C2=NOC3COCC23)cc1C(=O)N[C@H]1[C@@H](C(=O)Nc2ccc(F)c(C(F)(F)F)c2)[C@H]2CC[C@@H]1/C2=C\C1CC1` (single isomer, unassigned) [Example 72]: 160 nM.
On to `O=C(O)c1cccc(C2=NOC(C(=O)N[C@@H]3C4CCC(/C4=C/C(F)(F)F)[C@@H]3C(=O)Nc3ccc(F)c(C(F)(F)F)c3)C2)c1` (stereo partly drawn) [Example 33, 3-(5-{[(2R,3S,7Z)-3-{[4-fluoro-3-(trifluoromethyl)phenyl]carbamoyl}-7-(2,2,2-trifluoroethylidene)bicyclo[2.2.1]heptan-2-yl]carbamoyl}-4,5-dihydro-1,2-oxazol-3-yl)benzoic acid], for which the EC50 came out at 4400 nM.
The same measure for `COc1ncc(C2=NOC3CC(C(O)C(F)(F)F)CC23)cc1C(=O)N[C@H]1[C@@H](C(=O)Nc2ccc(F)c(C(F)(F)F)c2)[C@H]2CC[C@@H]1/C2=C\C(C)C` (stereo partly drawn) [Example 127, N-((1R,2R,3S,4R,Z)-3-((4-fluoro-3-(trifluoromethyl)phenyl)carbamoyl)-7-(2-methylpropylidene)bicyclo[2.2.1]heptan-2-yl)-2-methoxy-5-(5-(2,2,2-trifluoro-1-hydroxyethyl)-3a,5,6,6a-tetrahydro-4H-cyclopenta [d]isoxazol-3-yl)nicotinamide]: 4.3 nM.
On to `COc1ncc(-c2cc([C@H](OC(=O)NC3CCC3)C(F)(F)F)ccc2F)cc1C(=O)N[C@H]1[C@@H](C(=O)NC(C)C2(C)CC2)[C@H]2CC[C@@H]1/C2=C\C1CC(F)(F)C1` (stereo partly drawn) [Example 148, (S)-1-(3-(5-(((1R,2R,3S,4R, Z)-7-((3,3-difluorocyclobutyl)methylene)-3-(((R)-1-(1-methylcyclopropyl)ethyl)carbamoyl)bicyclo[2.2.1]heptan-2-yl)carbamoyl)-6-methoxypyridin-3-yl)-4-fluorophenyl)-2,2,2-trifluoroethyl cyclobutylcar-bamate], for which the concentration for a half-maximal effect (EC50) was 0.5 nM.
Then `COc1ncc(C2=NOC3CC(C(C)O)CC23)cc1C(=O)N[C@H]1[C@@H](C(=O)N[C@H](C)C2(C)CC2)[C@H]2CC[C@@H]1/C2=C\C1CC1` (stereo partly drawn) [Example 159, N-[(1R,2R,3S,4R, 7Z)-7-(cyclopropyl-methylidene)-3-{[(1R)-1-(1-methylcyclopropyl)ethyl]carbamoyl}bicyclo[2.2.1]heptan-2-yl]-5-[5-(1-hydroxyethyl)-3aH,4H,5H,6H, 6aH-cyclopenta[d][1,2]oxazol-3-yl]-2-methoxypyridine-3-carboxamide], with 6.1 nM.
